Experimental data: ChEMBL document CHEMBL1201862, “PubChem BioAssay data set” (2004)
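Briefly, cells in 96-well plates were exposed to five compound concentrations for 48 h, and endpoints were estimated by linear interpolation. GI50: concentration for 50% inhibition of growth.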 Calls of active or inactive are those of the source. Rule as the data show it: active = GI50 up to about 1.1 µM and inactive = higher.

Tests used:
Assay in all cases: NCI anticancer screen, dose series, 48 h
[1] = tested on: TK-10
[2] = tested on: SK-MEL-5
[3] = tested on: NCI-H460
[4] = tested on: SK-OV-3
[5] = tested on: U-251
[6] = tested on: OVCAR-8
[7] = tested on: Malme-3M
[8] = tested on: NCI-H522
[9] = tested on: UO-31
[10] = tested on: KM-20L2
[11] = tested on: RXF 393
[12] = tested on: M14
[13] = tested on: SN12C
[14] = tested on: OVCAR-3
[15] = tested on: SR
[16] = tested on: HOP-92
[17] = tested on: T47D
[18] = tested on: BT-549
[19] = tested on: Hs-578T
[20] = tested on: MDA-MB-231

Measured: GI50

Cc1ccc(S(=O)OC2c3ccccc3Cc3ccccc32)cc1 (stereo unspecified)
inactive: [1] 21.1 µM | [2] 19.3 µM | [3] 22.3 µM | [4] 19.5 µM | [5] 27.6 µM | [6] 15.6 µM | [7] 13.1 µM | [8] 13.9 µM | [9] 18.3 µM | [10] 19.9 µM | [11] 13.3 µM | [12] 18.6 µM | [13] 20.3 µM | [14] 21.5 µM | [15] 21.8 µM | [16] 17.2 µM

CCCCCCCC/C=C1\CCC(CN2CCOCC2)C1=O (stereo unspecified)
inactive: [1] 2.77 µM | [17] 1.85 µM | [18] 10.8 µM | [2] 10.1 µM | [3] 16.5 µM | [4] 19.9 µM | [5] 14.8 µM | [6] 3.83 µM | [7] 10.5 µM | [19] 4.36 µM | [8] 2.69 µM | [9] 8.36 µM | [10] 16.3 µM | [20] 2.23 µM | [11] 12.5 µM | [12] 5.37 µM | [13] 5.7 µM | [14] 7.5 µM | [15] 2.13 µM | [16] 16.6 µM
